Source: PubChem BioAssay AID179 (DTP/NCI, 2004)
Activity calls are given as the source filed them.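 Rule for the calls: active = compounds giving half or more protection of infected cells from virus-caused growth loss, again on retest; inactive = the rest.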 Where a SMILES comes first, the peptide text is derived from it.

System: CEM cells HIV-1 protection, formazan growth assay
Assay: NCI AIDS Antiviral Assay
Conditions: for IC50: measured here: growth of uninfected CEM cells
Summary of the method: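 Category rules: moderately active means at least 50% protection on retest, and confirmed active means 100% protection reproducibly. The underlying data came from a formazan growth assay in HIV-1-infected CEM cells.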

Row | SMILES | EC50 [µM] | IC50 [µM] | outcome
1 | CCOC(=O)C1=NN(c2ccccc2)C(=O)/C1=C\N1C(=S)NC(=O)/C1=C\c1cccc([N+](=O)[O-])c1 | > 200 | 89.1 | 
2 | CC1OC(n2cc(C(F)(F)F)c(=O)[nH]c2=O)C=CC1=O (stereo unspecified) | > 447 | 3.39 | 
3 | N=c1ncn(Cc2ccccc2)c2nc[nH]c12 | > 200 | > 200 | 
4 | COc1ccc2ccccc2c1C1OC(=O)c2ccccc21 (stereo unspecified) | > 46.8 | 28.8 | 
5 | Cc1cc(N(CCC#N)CCC#N)ccc1/C(N=Nc1ccc(Cl)cc1)=N\NC(=O)c1ccccc1 | > 200 | 21.4 | 
6 | N#CCCC1(CCC#N)CCCCCCCCC(CCC#N)(CCC#N)C(O)C1O (stereo unspecified) | > 200 | > 200 | 
7 | COc1ccc2c(c1)CCC(OS(=O)(=O)CC13CCC(CC1=O)C3(C)C)C2=O (stereo unspecified) | > 200 | 10.5 | 
8 | CC(=O)OCc1cccc(O)c1C(=O)CCC=C(C)C | > 200 | 148 | 
9 | NC1CC(=O)c2csc(Br)c21 (stereo unspecified) | > 57.5 | 11 | 
10 | NNc1cn[nH]c(=O)c1Cl | > 200 | > 200 | 
11 | CN1C(=O)CN2C(Cl)(Cl)C2(c2ccccc2)c2cc(Cl)ccc21 (stereo unspecified) | > 200 | 120 | 
12 | c1ccc(CN(Cc2ccccn2)Cn2cccn2)nc1 |  |  | inactive
13 | Nc1nnc(Sc2ccc([N+](=O)[O-])cc2)s1 | > 195 | 11.7 | 
14 | C/C(O)=C(\C=N/C(=S)Nc1ccccc1)C(=O)Nc1ccccc1 | > 200 | > 200 | 
15 | CCOC(=O)C1=C(Nc2ccc(Br)cc2)OCC1=O |  |  | inactive
16 | Cn1c(C(=O)/C=C/c2ccc([N+](=O)[O-])cc2)nc2ccccc21 | > 200 | 33.1 | 
17 | CCCCOC(=Nc1ccccc1)N(c1ccccc1)c1ccccc1 | > 200 | 36.3 | 
18 | O=C1OC2C=CC1C1(CCOC1=O)C2 (stereo unspecified) | > 200 | > 200 | 
19 | Nc1ccc(-c2nc3sc(-c4ccc(N)cc4)nc3s2)cc1 | > 16.2 | > 16.2 | 
20 | O=C1c2c(O)ccc([N+](=O)[O-])c2C(=O)c2c(O)ccc(Nc3cccc(CO)c3)c21 | > 200 | 0.724 | 
21 | COc1ccc(OC(C(=O)O)C(C)C)c2c1CCCC2=O (stereo unspecified) |  |  | inactive
22 | CC1=C(C)C2(C#N)CC(=O)N=C2O1 (stereo unspecified) | > 200 | > 200 | 

Row | SMILES | EC50 [µM] | IC50 [µM] | outcome
23 | COc1ccc(/C=C/c2ccc3ccccc3n2)c(OC)c1 | > 200 | 12.3 | 
24 | Cc1cn(C2CC(NC(=O)N(C)O)C(CO)O2)c(=O)[nH]c1=O (stereo unspecified) | > 200 | > 200 | 
25 | CCOc1cc2c(cc1Cc1ccc(OC)cc1)OCO2 | > 91.2 | 0.631 | 
26 | CCCCCCCCCCCCCCC(C)CCC(=O)O (stereo unspecified) |  |  | inactive
27 | NS(=O)(=O)c1nnc(NC(=O)Nc2ccc(Cl)c(Cl)c2)s1 | > 200 | 26.3 | 
28 | C#CCOC(=O)C=[N+]=[N-] | > 200 | > 200 | 
29 | CCOC(=O)C(C)(c1cn(C)c2ccccc12)c1cn(C)c2ccccc12 |  |  | inactive
30 | CCC(C)C(NC(=O)C(CCC(N)=O)NC(=O)C(CCCCN)NC(=O)C(CO)NC(=O)C(CC(C)C)NC(=O)C(Cc1ccc(O)cc1)NC(=O)C(C)N)C(=O)NC(C)C(=O)NC(CO)C(=O)NC(CC(N)=O)C(=O)O (stereo unspecified) (H-AYLSKQIASN-OH; configuration not given here) | > 57.5 | > 57.5 | 
31 | CSC1=N/C(=C\c2ccccc2)C(=O)N1CN1CCCCC1 | > 200 | 115 | 
32 | CC(C)CCC[C@@H](C)C1CCC2[C@@H]3CC(OS(=O)(=O)O)C4C[C@@H](OC5OC(CO)C(O)C(O)C5O)CC[C@]4(C)C3CC[C@@]21C (stereo partly specified) | > 37.2 | 6.03 | 
33 | N#CC(C#N)=CN | > 200 | > 200 | 
34 | COc1ccc(-c2n[nH]c3c2CCCc2ccccc2-3)cc1 | > 43.7 | 18.2 | 
35 | CN(N=O)C(=O)NC(C=O)C(O)C(O)C(O)CO (stereo unspecified) | > 200 | > 200 | 
36 | Nc1nc2c(c(=O)[nH]1)Cc1nc(N)[nH]c(=O)c1C2 | > 24.5 | > 24.5 | 
37 | N#Cc1cc([N+](=O)[O-])ccc1NC(=O)C(=O)C(C(=O)c1ccc2ccccc2c1)C1OCc2ccccc21 (stereo unspecified) | > 70.8 | 37.2 | 
38 | CC(=O)OCC1=C(CCC#N)N2C(=O)C(NC(=O)Cc3cccs3)C2S(=O)C1 (stereo unspecified) | > 200 | 95.5 | 
39 | CC(=O)/C(=C/N1CC(=O)NC1=S)C(=O)Nc1ccccc1 | > 200 | > 200 | 
40 | NC(=S)N/N=C/c1c(O)c2cc(Cl)ccc2[nH]c1=O | > 200 | 93.3 | 
41 | COC(=O)C1CCC[C@H]2C(CO)=C(C)C(=O)[C@@H]12 (stereo partly specified) | 182 | > 200 | 
42 | CN(C)/N=C(/c1nc2ccc(Cl)cc2[nH]c1=O)C(O)c1ccc(C(O)/C(=N\N(C)C)c2nc3ccc(Cl)cc3[nH]c2=O)cc1 (stereo unspecified) | > 389 | 24 | 
43 | N#Cc1c(N2CCOCC2)ncn(-c2ccc(Cl)cc2)c1=O | > 200 | > 200 | 
